Test results as given in patent US7368287B2, “Use of L-α-lysophosphatidylcholine to obtain the differentiation of monocytes into mature dendritic cells in vitro” (Biomerieux, priority 2002, dated 2008).

How the values were obtained:
BALB/c mice [1] = assay: Inflammation of the plantar foot pad (thickening of the foot); format: in vivo, mouse; settings: after 24 h
Experimental: LPC is an inflammatory product—In this example, a solution of 100 to 500 nmol of LPC dissolved in 50 μl of PBS is injected into the plantar foot pad of BALB/c mice (Charles River Laboratories) on day 0. The plantar foot pads are measured using a micrometer before and after injection, up to the 10th day, and compared to the plantar foot pads of “control” mice, obtained by injection of PBS (50 μl). The intensity of the inflammation is reflected by the thickening of the foot. The maximum thickening is observed on the 1st day, 24 h after the injection.
INTRALIPID® blocks the inflammation and the immune response induced by LPC, in vivo. In this example, 3 batches of BALB/c mice are immunized against the hen egg lysozyme (HEL) antigen by injection of 50 μl of solution into the plantar foot pad. The “HEL” control batch receives 50 μg of HEL, the “HEL+Intralipid” batch receives a mixture of INTRALIPID® (45 μl) and of 50 μg of HEL (5 μl of a solution at 10 mg/ml). The “HEL+LPC” batch receives 50 μg of HEL with 350 nmol of LPC dissolved in PBS. The “HEL+LPC+Intralipid” batch receives 50 μg of HEL mixed with 350 nmol of LPC dissolved in 45 μl of INTRALIPID®. After 24 hours, the thickness of the foot pads is measured using a micrometer, and compared with the measurement taken before injection. The difference in thickness is proportional to the intensity of the inflammation.

BALB/c mice [2] = assay: Delayed contact hypersensitivity to the hapten DNFB (ear edema); format: in vivo, mouse; settings: 500 nmol LPC on back 10 minutes before DNFB sensitization, 48 h after elicitation
Text: LPC can induce a CD8+ T lymphocyte response in vivo. In this example, a test for delayed contact hypersensitivity to haptens was used. In this model, BALB/c mice are sensitized by application of a hapten, DNFB (1-fluoro-2,4-dinitrobenzene, 0.5% solution in 1:1 olive oil/acetone), to the back. Five days later, a non-irritant dose of DNFB (0.2% solution in 1:1 olive oil/acetone) is applied to the left ear, whereas the right ear receives the solvent. In this elicitation phase, CD8^+ T lymphocytes specific for the haptenized proteins are recruited and infiltrate the ear, secreting γIFN and producing an edema.
A “control” batch of mice was sensitized with DNFB alone and another batch (“LPC” mice) received 500 nmol of LPC by application to the skin of the back of 20 μl of an ethanolic solution of LPC, 10 minutes before the application of DNFB. Five days later, the two batches were treated in the same way for the elicitation phase and the thickening of the ears was measured using a micrometer 48 h after this application.

[3] = test system: naïve allogenic T lymphocytes; assay: Stimulation of IL-2 and γIFN secretion by allogenic T lymphocytes (mixed leukocyte reaction, ELISA); format: cell-based, human; design: unit not given here; settings: for Secretion of IL-2 by T lymphocytes / Secretion of γIFN by T lymphocytes: after 4 days; for Secretion of γIFN by T lymphocytes: Table 3; for Dendritic cell-induced secretion of γIFN by T lymphocytes: Table 8
Experimental: The “control” and “LPC” cells used in this analysis are those obtained after 6 days of differentiation according to the protocol described in example 1.
Naïve allogenic T lymphocytes are isolated from human peripheral blood. Peripheral blood mononuclear cells are isolated by density gradient centrifugation (600 g, 20 minutes) in the presence of Ficoll-Hypaque. After elimination of the monocytes on a Percoll gradient, the peripheral blood lymphocytes are found in the dense fraction. The T lymphocytes are purified by immunomagnetic depletion using a cocktail of anti-CD19 (antibody 4G7) (Becton Dickinson, Francklin Lakes, N.J., USA), anti-CD16 (antibody 3G8), anti-CD56 (antibody NKH1), anti-glycophorin A (antibody 11E4B7.6) and anti-CD14 (antibody RMPO52), monoclonal antibodies sold by Beckman Coulter.
The purified T lymphocytes are cultured in flat-bottomed 96-well culture plates with the “control” or “LPC” cells.
2×10^5T cells are cultured in 200 μl of culture medium according to a monocytes differentiated in the presence or absence of LPC/T cells ratio (DC/LT ratio) of 1:5, 1:10 or 1:20. After 4 days, 50 μl of the culture supernatant are used to determine the secretion of IL-2 (interleukin 2) and of γIFN (gamma interferon) using an ELISA kit (Endogen, Woburn, Mass., USA).
The inventors then used a PPARγ agonist, ciglitizone. A solution of ciglitizone (Sigma, 50 μM) was added to the culture medium on the fifth day of monocyte differentiation, as described in example 1, 15 minutes before the addition of a solution of LPC (40 μM, for […]). The cells obtained are “LPC+ciglitizone” cells. “Ciglitizone” cells were obtained according to the same protocol, but in the absence of LPC, and “LPC” cells were obtained as described in example 1, in the absence of ciglitizone.
The functional ability of these cells (“control”, “ciglitazone” and “LPC+ciglitazone” cells) to stimulate T lymphocytes (LT) were then analyzed. These cells were cultured as described in example 4, in the presence of purified allogenic T lymphocytes. The secretion of γIFN was measured as in example 4.

NF-κB = settings: high concentration of LPC (50 μM); cited from earlier work
BALB/c mice [4] = assay: HEL-specific IgG in serum by ELISA after immunization; format: in vivo, mouse; settings: LPC 350 nmol co-injected with HEL, booster after 15 days; FIG. 1
Experimental: LPC stimulates the production of specific antibodies against a co-injected soluble antigen. LPC dissolved in PBS (350 nmol in 50 μl) is mixed with hen egg lysozyme (HEL, 1 mg/ml) and this mixture is injected into the plantar foot pad of BALB/c mice. The “HEL+LPC” batch of mice receives 50 μl of this mixture in the foot pads of the two hind feet. The “HEL” batch of mice receives 50 μl of HEL solution (1 mg/ml in PBS) in the two feet. After 15 days, a booster injection is given subcutaneously on the 2 flanks. The “HEL+LPC” batch receives, on each flank, 100 μl of a solution of LPC (5 mM) and of HEL (1 mg/ml) in PBS. The “HEL” batch receives, on each flank, 100 μl of a solution of HEL (1 mg/ml) in PBS. Two weeks later, blood is taken from the mice and the IgGs specific for the HEL antigen are assayed by ELISA with respect to a standard IgG solution range. The titration curves giving the absorbance (Abs) as a function of the logarithm of the serum dilution are represented in FIG. 1.

L-α-lysophosphatidylcholine [LPC]
Thickening of the foot (BALB/c mice [1]; LPC 100 nmol in 50 μl PBS into plantar foot pad): 0.35 mm
Thickening of the foot (BALB/c mice [1]; LPC 200 nmol): 0.55 mm
Thickening of the foot (BALB/c mice [1]; LPC 300 nmol): 0.725 mm
Thickening of the foot (BALB/c mice [1]; LPC 400 nmol): 1.125 mm
Thickening of the foot (BALB/c mice [1]; LPC 500 nmol): 1.075 mm
Thickening of the left ear (BALB/c mice [2]; left ear receives DNFB 0.2%): 149 ± 31 μm
Thickening of the right ear (BALB/c mice [2]; right ear receives solvent): 0 ± 3 μm
Secretion of IL-2 by T lymphocytes ([3]; DC/LT ratio 0): 0
Secretion of IL-2 by T lymphocytes ([3]; DC/LT ratio 0.05): 23 ± 1
Secretion of IL-2 by T lymphocytes ([3]; DC/LT ratio 0.1): 47 ± 26
Secretion of IL-2 by T lymphocytes ([3]; DC/LT ratio 0.2): 173 ± 31
Secretion of γIFN by T lymphocytes ([3]; DC/LT ratio 0): 0
Secretion of γIFN by T lymphocytes ([3]; DC/LT ratio 0.05): 73 ± 47
Secretion of γIFN by T lymphocytes ([3]; DC/LT ratio 0.1): 439 ± 108
Secretion of γIFN by T lymphocytes ([3]; DC/LT ratio 0.2): 795 ± 19
Dendritic cell-induced secretion of γIFN by T lymphocytes ([3]; DC/LT ratio 0): 0
Dendritic cell-induced secretion of γIFN by T lymphocytes ([3]; DC/LT ratio 0.05): 750 ± 184
Dendritic cell-induced secretion of γIFN by T lymphocytes ([3]; DC/LT ratio 0.1): 899 ± 124
Dendritic cell-induced secretion of γIFN by T lymphocytes ([3]; DC/LT ratio 0.2): 1326 ± 248
Activity of the transcription factor NF-κB (NF-κB): inhibits
Production of IgGs specific for the HEL antigen (BALB/c mice [4]): induces the synthesis of antibodies specific for the antigen
